Substitutions are numbered along the chain they refer to.
Key:
Settings in all cases: for ΔpEC50±SEM: relative to WT, n = 3 in triplicate; for ΔpEC50±SEM / Span±SEM: mean ± SEM; for Span±SEM: window between maximal response (Emax) and vehicle, n = 3
PTH1R T178A mutant = system: T1, PTH1R T178A mutant; assay: cAMP accumulation assay (GloSensor), PTH1R T178A; assay type: cell-based, human
T1 construct: a flag-tag was fused to the N terminal of full-length PTH1R (WT or mutant); expressed in transfected cells; host or cells: HEK293T
Procedure: (§1) After 24 h, transfected cells were plated onto a 384-well plate, which was treated with cell adherent reagent (Applygen) in advance. After another 12 h, cells were treated with Hank’s balanced salt solution for starvation and then incubated in CO2-independent media containing 4% GloSensor cAMP Reagent (Promega) at a volume of 5 μl per well and incubated for 20 min at RT before measurements for baseline luminescence (Spark Multimode microplate reader, TECAN). Next, test ligands were added at different concentrations from 10^−6 to 10^−13 M before second measurement. Finally, data were normalized to 100% of the maximal PTH (1-34) response for WT PTH1R using a sigmoidal dose-response in GraphPad Prism.
Statistical analyses were performed on at least three individual datasets and analysed using GraphPad Prism software. […] Data are mean± s.e.m. from at least three independent experiments, performed in triplicates. ns, not significant, ^nsP > 0.01; ^*P < 0.01; ^**P < 0.001; ^***P < 0.0001 (one-way analysis of variance (ANOVA) followed by Dunnett’s test, compared with the response of the WT). For dose-response experiments, data were normalized and analyzed using nonlinear curve fitting for the log (agonist) versus response (three parameters) curves.

WT PTH1R = biological target: T2, WT PTH1R (Homo sapiens, UniProt Q03431); assay: cAMP accumulation assay (GloSensor), wild-type PTH1R; assay type: cell-based
T2 construct: a flag-tag was fused to the N terminal of full-length PTH1R (WT or mutant); expressed in transfected cells; host or cells: HEK293T
T2 sequence (Q03431 27-593): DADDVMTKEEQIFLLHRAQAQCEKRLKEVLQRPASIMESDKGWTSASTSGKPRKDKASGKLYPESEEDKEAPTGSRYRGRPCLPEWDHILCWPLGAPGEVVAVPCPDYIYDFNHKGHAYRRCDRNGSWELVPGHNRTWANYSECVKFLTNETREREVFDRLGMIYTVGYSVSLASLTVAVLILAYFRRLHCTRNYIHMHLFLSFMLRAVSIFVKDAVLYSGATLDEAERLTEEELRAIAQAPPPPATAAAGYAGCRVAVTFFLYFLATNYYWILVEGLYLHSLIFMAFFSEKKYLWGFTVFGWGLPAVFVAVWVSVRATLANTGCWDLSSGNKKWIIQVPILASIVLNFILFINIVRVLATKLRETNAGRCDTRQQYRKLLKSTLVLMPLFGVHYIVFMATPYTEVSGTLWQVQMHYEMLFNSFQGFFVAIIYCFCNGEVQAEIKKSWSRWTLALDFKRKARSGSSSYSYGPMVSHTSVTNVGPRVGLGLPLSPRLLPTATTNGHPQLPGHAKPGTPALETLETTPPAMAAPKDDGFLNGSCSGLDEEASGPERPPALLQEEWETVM
Procedure: as §1, with “Human embryonic kidney 293 T (HEK293T, ATCC: CRL-1573) cells were transfected with a plasmid mixture consisting of pcDNA3.1-flag-PTH1R (WT or mutants) and the cAMP biosensor GloSensor-22F (Promega) at a ratio of 2:1 (see Supplementary Table 7 for a list of primers used in this study). After 24” for “After 24”
(§2) Statistical analyses were performed on at least three individual datasets and analysed using GraphPad Prism software. Bars represent differences in the calculated agonist potency (pEC50) and maximum agonist response (Emax) for each mutant relative to the WT receptor. Data are mean± s.e.m. from at least three independent experiments, performed in triplicates. ns, not significant, ^nsP > 0.01; ^*P < 0.01; ^**P < 0.001; ^***P < 0.0001 (one-way analysis of variance (ANOVA) followed by Dunnett’s test, compared with the response of the WT). For dose-response experiments, data were normalized and analyzed using nonlinear curve fitting for the log (agonist) versus response (three parameters) curves.

PTH1R I363A mutant = biological target: T3, PTH1R I363A mutant (Homo sapiens, UniProt Q03431, I363A); assay: cAMP accumulation assay (GloSensor), PTH1R I363A; assay type: cell-based
T3 construct: a flag-tag was fused to the N terminal of full-length PTH1R (WT or mutant); expressed in transfected cells; host or cells: HEK293T
T3 sequence (Q03431 27-593 I363A): T2 sequence (Q03431 27-593) with I337A
Procedure: as §1, with “Human embryonic kidney 293 T (HEK293T, ATCC: CRL-1573) cells were transfected with a plasmid mixture consisting of pcDNA3.1-flag-PTH1R (WT or mutants) and the cAMP biosensor GloSensor-22F (Promega) at a ratio of 2:1 (see Supplementary Table 7 for a list of primers used in this study). After 24” for “After 24”
as §2

## H-AVAEIQLMHQRAKWIQDARRRAFLHKLIAEIHTAEI-OH [LA-PTH, long-acting PTH analog, modified PTH/PTHrP hybrid]
PTH1R T178A mutant; PTH1R T1781.30A, replicate 1
  span (from the WT): 104.1
  ΔpEC50 (from the WT): -0.079
PTH1R T178A mutant; PTH1R T1781.30A, replicate 2
  span (from the WT): 116.4
  ΔpEC50 (from the WT): 0
PTH1R T178A mutant; PTH1R T1781.30A, replicate 3
  span (from the WT): 180.3
  ΔpEC50 (from the WT): -0.07
PTH1R T178A mutant
  ΔpEC50±SEM: -0.05±0.02
  Span±SEM: 133.60±23.62
PTH1R T178A mutant; replicate 1
  ΔpEC50 (from the WT): -0.079
PTH1R T178A mutant; replicate 2
  ΔpEC50 (from the WT): 0
PTH1R T178A mutant; replicate 3
  ΔpEC50 (from the WT): -0.07
WT PTH1R; PTH1R WT, replicate 1
  span (from the WT): 106.8
  ΔpEC50 (from the WT): 0
WT PTH1R; PTH1R WT, replicate 2
  span (from the WT): 118.8
  ΔpEC50 (from the WT): 0
WT PTH1R; PTH1R WT, replicate 3
  span (from the WT): 116.4
  ΔpEC50 (from the WT): 0
WT PTH1R
  ΔpEC50±SEM: 0
  Span±SEM: 114.00±3.67
WT PTH1R; replicate 1
  ΔpEC50 (from the WT): 0
WT PTH1R; replicate 2
  ΔpEC50 (from the WT): 0
WT PTH1R; replicate 3
  ΔpEC50 (from the WT): 0
PTH1R I363A mutant; PTH1R I3635.39A, replicate 1
  span (from the WT): 94.78
  ΔpEC50 (from the WT): -0.24
PTH1R I363A mutant; PTH1R I3635.39A, replicate 2
  span (from the WT): 139.7
  ΔpEC50 (from the WT): -0.23
PTH1R I363A mutant; PTH1R I3635.39A, replicate 3
  span (from the WT): 119.7
PTH1R I363A mutant
  ΔpEC50±SEM: -0.05±0.19
  Span±SEM: 118.06±12.99
PTH1R I363A mutant; replicate 1
  ΔpEC50 (from the WT): -0.24
PTH1R I363A mutant; replicate 2
  ΔpEC50 (from the WT): -0.23
PTH1R I363A mutant; replicate 3
  ΔpEC50 (from the WT): 0.32

## H-AVSEHQLLHDKGKSIQDLRRRELLEKLL-{Aib}-KLHTA-NH2 [ABL, Abaloparatide, an analog of PTHrP, short-acting PTH1R agonist]
PTH1R T178A mutant; PTH1R T1781.30A, replicate 1
  span (from the WT): 120.4
  ΔpEC50 (from the WT): -0.829
PTH1R T178A mutant; PTH1R T1781.30A, replicate 2
  span (from the WT): 180.3
  ΔpEC50 (from the WT): -0.74
PTH1R T178A mutant; PTH1R T1781.30A, replicate 3
  span (from the WT): 96.78
  ΔpEC50 (from the WT): -0.62
PTH1R T178A mutant
  ΔpEC50±SEM: -0.73±0.06
  Span±SEM: 132.49±24.86
PTH1R T178A mutant; replicate 1
  ΔpEC50 (from the WT): -0.829
PTH1R T178A mutant; replicate 2
  ΔpEC50 (from the WT): -0.74
PTH1R T178A mutant; replicate 3
  ΔpEC50 (from the WT): -0.62
WT PTH1R; PTH1R WT, replicate 1
  span (from the WT): 115.9
  ΔpEC50 (from the WT): 0
WT PTH1R; PTH1R WT, replicate 2
  span (from the WT): 122.2
  ΔpEC50 (from the WT): 0
WT PTH1R; PTH1R WT, replicate 3
  span (from the WT): 127.3
  ΔpEC50 (from the WT): 0
WT PTH1R
  ΔpEC50±SEM: 0
  Span±SEM: 121.80±3.30
WT PTH1R; replicate 1
  ΔpEC50 (from the WT): 0
WT PTH1R; replicate 2
  ΔpEC50 (from the WT): 0
WT PTH1R; replicate 3
  ΔpEC50 (from the WT): 0
PTH1R I363A mutant; PTH1R I3635.39A, replicate 1
  span (from the WT): 145.9
  ΔpEC50 (from the WT): -0.54
PTH1R I363A mutant; PTH1R I3635.39A, replicate 2
  span (from the WT): 170
  ΔpEC50 (from the WT): -0.46
PTH1R I363A mutant; PTH1R I3635.39A, replicate 3
  span (from the WT): 139.9
  ΔpEC50 (from the WT): -0.722
PTH1R I363A mutant
  ΔpEC50±SEM: -0.57±0.08
  Span±SEM: 151.93±9.20
PTH1R I363A mutant; replicate 1
  ΔpEC50 (from the WT): -0.54
PTH1R I363A mutant; replicate 2
  ΔpEC50 (from the WT): -0.46
PTH1R I363A mutant; replicate 3
  ΔpEC50 (from the WT): -0.722

## H-SVSEIQLMHNLGKHLNSMERVEWLRKKLQDVHNF-OH [PTH, Teriparatide, human PTH 1-34, long-acting peptide agonist of PTH1R]
PTH1R T178A mutant; PTH1R T1781.30A, replicate 1
  span (from the WT): 113.4
  ΔpEC50 (from the WT): -0.148
PTH1R T178A mutant; PTH1R T1781.30A, replicate 2
  span (from the WT): 160.5
  ΔpEC50 (from the WT): -0.301
PTH1R T178A mutant; PTH1R T1781.30A, replicate 3
  span (from the WT): 167.8
  ΔpEC50 (from the WT): -0.188
PTH1R T178A mutant
  ΔpEC50±SEM: -0.21±0.05
  Span±SEM: 147.23±17.05
PTH1R T178A mutant; replicate 1
  ΔpEC50 (from the WT): -0.148
PTH1R T178A mutant; replicate 2
  ΔpEC50 (from the WT): -0.301
PTH1R T178A mutant; replicate 3
  ΔpEC50 (from the WT): -0.188
WT PTH1R; HEK293T cells, from curve fitting dose-response data
  Emax: 103.1 luminescence counts per 500ms
WT PTH1R; PTH1R WT, replicate 1
  span (from the WT): 125.1
  ΔpEC50 (from the WT): 0
WT PTH1R; PTH1R WT, replicate 2
  span (from the WT): 136.6
  ΔpEC50 (from the WT): 0
WT PTH1R; PTH1R WT, replicate 3
  span (from the WT): 114.9
  ΔpEC50 (from the WT): 0
WT PTH1R
  ΔpEC50±SEM: 0
  Span±SEM: 125.53±6.27
WT PTH1R; replicate 1
  ΔpEC50 (from the WT): 0
WT PTH1R; replicate 2
  ΔpEC50 (from the WT): 0
WT PTH1R; replicate 3
  ΔpEC50 (from the WT): 0
PTH1R I363A mutant; PTH1R I3635.39A, replicate 1
  span (from the WT): 93.29
  ΔpEC50 (from the WT): -0.207
PTH1R I363A mutant; PTH1R I3635.39A, replicate 2
  span (from the WT): 156.2
  ΔpEC50 (from the WT): -0.352
PTH1R I363A mutant; PTH1R I3635.39A, replicate 3
  span (from the WT): 155.7
  ΔpEC50 (from the WT): -0.276
PTH1R I363A mutant
  ΔpEC50±SEM: -0.28±0.04
  Span±SEM: 180.23±7.67
PTH1R I363A mutant; replicate 1
  ΔpEC50 (from the WT): -0.207
PTH1R I363A mutant; replicate 2
  ΔpEC50 (from the WT): -0.352
PTH1R I363A mutant; replicate 3
  ΔpEC50 (from the WT): -0.276

Source: PMC9586930, “Molecular insights into the distinct signaling duration for the peptide-induced PTH1R activation” (Nature Communications, 2022)
